Values after ≈ are worked out from the molar mass of the structure shown.
Assays:
[1] = system: Staphylococcus aureus; assay: Antibacterial activity against methicillin-resistant Staphylococcus aureus; assay type: functional
[2] = system: Staphylococcus aureus; assay: Antibacterial activity against Staphylococcus aureus ATCC 25923 assessed as inhibition of bacterial growth by agar well diffusion method; assay type: functional
[3] = system: Staphylococcus aureus; assay: Antibacterial activity against methicillin-resistant Staphylococcus aureus 252 assessed as inhibition of bacterial growth; assay type: functional
[4] = system: Staphylococcus aureus; assay: Antibacterial activity against methicillin-resistant Staphylococcus aureus 4N216 infected in mouse assessed as endurance rate at 20 mg/kg, iv relative to control; assay type: functional
[5] = system: Staphylococcus aureus; assay: Antibacterial activity against Staphylococcus aureus assessed as inhibition of bacterial growth; assay type: functional
[6] = Cytotoxicity against human A549 cells assessed as inhibition of cell growth; assay type: toxicity, cell-based
[7] = Cytotoxicity against human PC-3 cells assessed as inhibition of cell growth; assay type: toxicity, cell-based
[8] = Cytotoxicity against human HeLa cells assessed as inhibition of cell growth; assay type: toxicity, cell-based
[9] = system: Staphylococcus aureus; assay: Antibacterial activity against methicillin-resistant Staphylococcus aureus 4 assessed as inhibition of bacterial growth; assay type: functional
[10] = system: Staphylococcus aureus; assay: Antibacterial activity against methicillin-resistant Staphylococcus aureus 11 assessed as inhibition of bacterial growth; assay type: functional
[11] = system: Staphylococcus aureus; assay: Antibacterial activity against methicillin-resistant Staphylococcus aureus 3 assessed as inhibition of bacterial growth; assay type: functional
[12] = system: Staphylococcus aureus; assay: Antibacterial activity against methicillin-resistant Staphylococcus aureus 8 assessed as inhibition of bacterial growth; assay type: functional
[13] = system: Staphylococcus aureus; assay: Antibacterial activity against methicillin-resistant Staphylococcus aureus 6 assessed as inhibition of bacterial growth; assay type: functional
[14] = system: Staphylococcus aureus; assay: Antibacterial activity against methicillin-resistant Staphylococcus aureus 12 assessed as inhibition of bacterial growth; assay type: functional
[15] = system: Staphylococcus aureus; assay: Antibacterial activity against methicillin-resistant Staphylococcus aureus 9 assessed as inhibition of bacterial growth; assay type: functional
[16] = Cytotoxicity against human MKN-28 cells assessed as inhibition of cell growth; assay type: toxicity, cell-based
[17] = Cytotoxicity against human HepG2 cells assessed as inhibition of cell growth; assay type: toxicity, cell-based
[18] = Cytotoxicity against human HKC-8 cells assessed as inhibition of cell growth; assay type: toxicity, cell-based

Row | Compound | MIC [1] [µg/mL] | other results
1 | CC1(C)S[C@@H]2[C@H](NC(=O)[C@H](N)c3ccccc3)C(=O)N2[C@H]1C(=O)OCOC(=O)[C@@H]1N2C(=O)C[C@H]2S(=O)(=O)C1(C)C [SULTAMICILLIN] | 25 (≈ 42 µM) | 
2 | CCn1cc(Br)c2c3c(-c4ccc(Cl)cc4)onc3ccc21 | 4.3 (≈ 11.4 µM) | 
3 | COc1ccc(C2C([N+](=O)[O-])C(c3ccccc3)NC23C(=O)N(Cc2ccccc2)c2ccccc23)cc1 (configuration not stated) |  | MIC [2]: 5 µg/mL (≈ 9.89 µM)
4 | Clc1ccc(C(c2c[nH]c3ccc(Br)cc23)c2c[nH]c3ccc(Br)cc23)cc1 | 1 (≈ 1.94 µM) | 
5 | CCCCn1cc(Br)c2c3c(-c4ccc(C)cc4)onc3ccc21 | 4.3 (≈ 11.2 µM) | 
6 | COC(=O)c1ccc(-c2ccc3c(c2)c(/C=N/NC(=N)N)cn3S(=O)(=O)c2ccccc2)cc1 | 3.13 (≈ 6.58 µM) | 
7 | CCCCn1cc(Br)c2c3c(-c4ccc(OC)cc4)occ3ccc21 | 1.4 (≈ 3.51 µM) | 
8 | N=C(N)N/N=C/c1cn(S(=O)(=O)c2ccccc2)c2ccc(-c3ccc(F)c(Cl)c3)cc12 | 3.13 (≈ 6.66 µM) | 
9 | CC(C)(C)OC(=O)NCC(NC(=O)c1c[nH]c2ccc(Br)cc12)c1c[nH]c2ccc(Br)cc12 (configuration not stated) |  | MIC [3]: 2 µg/mL (≈ 3.47 µM)
10 | CC(C)(C)n1cc(Br)c2c3c(-c4ccc(Cl)cc4)onc3ccc21 | 4.3 (≈ 10.7 µM) | 
11 | Fc1ccc(C(c2c[nH]c3ccc(Br)cc23)c2c[nH]c3ccc(Br)cc23)cc1 | 1 (≈ 2.01 µM) | 
12 | Cl.OC(CNCCc1c[nH]c2cc(F)ccc12)Cn1c2ccc(Cl)cc2c2cc(Cl)ccc21 (configuration not stated) |  | Activity [4]: 75%
13 | O=C(O)c1cn(C2CC2)c2cc(N3CCNCC3)c(F)cc2c1=O [CIPROFLOXACIN] |  | MIC [2]: 0.3 µg/mL (≈ 0.905 µM); MIC [5]: 20 µg/mL (≈ 60.4 µM)
14 | O=[N+]([O-])c1ccc(C(c2c[nH]c3ccc(Br)cc23)c2c[nH]c3ccc(Br)cc23)cc1 | 1 (≈ 1.9 µM) | IC50 [6]: 4.5 µM; IC50 [7]: 3.9 µM; IC50 [8]: 2.7 µM
15 | Clc1ccc2c(c1)[C@H]1OCO[C@H]1C(c1c[nH]c3ccc(Br)cc13)N2 (some centres not stated) | 0.31 (≈ 0.764 µM) | 
16 | COc1ccc(-c2occ3ccc4c(c(Br)cn4C(C)(C)C)c23)cc1 | 1.4 (≈ 3.51 µM) | 
17 | Clc1ccc2nc(-c3c[nH]c4ccc(Cl)cc34)ccc2c1 | 0.62 (≈ 1.98 µM) | 
18 | Fc1ccc(Nc2nnc(Cc3c[nH]c4ccccc34)s2)c(F)c1 | 50 (≈ 146 µM) | 
19 | CC[C@H]1OC(=O)[C@H](C)[C@@H](O[C@H]2C[C@@](C)(OC)[C@@H](O)[C@H](C)O2)[C@H](C)[C@@H](O[C@@H]2O[C@H](C)C[C@H](N(C)C)[C@H]2O)[C@](C)(O)C[C@@H](C)C(=O)[C@H](C)[C@@H](O)[C@]1(C)O [ERYTHROMYCIN] | 32 (≈ 43.6 µM) | 
20 | Cc1ccc(-c2onc3ccc4c(c(Br)cn4C(C)(C)C)c23)cc1 | 4.3 (≈ 11.2 µM) | 
21 | N=C(N)N/N=C/c1cn(S(=O)(=O)c2ccccc2)c2ccc(-c3ccc(OC(F)(F)F)cc3)cc12 | 3.13 (≈ 6.24 µM) | 
22 | CC(=O)/C(=C\c1cn(CC(=O)N2CCCCC2)c2ccccc12)n1c([N+](=O)[O-])cnc1C | 1 (≈ 2.3 µM) | 
23 | N=C(N)N/N=C/c1cn(S(=O)(=O)c2ccccc2)c2ccc(-c3cccc(OC(F)(F)F)c3)cc12 | 3.13 (≈ 6.24 µM) | 
24 | Cc1ccc(C(=O)OC[C@H]2O[C@H](n3c(-c4cc5ccccc5[nH]4)c(CC(=O)N(CC(=O)O)Cc4ccccc4)c4ccccc43)CC2OC(=O)c2ccc(C)cc2)cc1 (some centres not stated) |  | MIC [9]: 13 µg/mL (≈ 16.5 µM); MIC [10]: 13 µg/mL (≈ 16.5 µM); MIC [11]: 13 µg/mL (≈ 16.5 µM); MIC [12]: 13 µg/mL (≈ 16.5 µM); MIC [13]: 13 µg/mL (≈ 16.5 µM); MIC [14]: 13 µg/mL (≈ 16.5 µM); MIC [15]: 13 µg/mL (≈ 16.5 µM)
25 | Nc1nnc(Cc2c[nH]c3ccccc23)s1 | 3.12 (≈ 13.6 µM) | 
26 | Clc1ccc(Nc2nnc(Cc3c[nH]c4ccccc34)s2)c(Cl)c1 | 25 (≈ 66.6 µM) | 
27 | S=C=NCCn1ccc2ccccc21 | 8 (≈ 39.5 µM) | IC50 [16]: 2 µg/mL (≈ 9.89 µM); IC50 [17]: 2 µg/mL (≈ 9.89 µM); IC50 [18]: 2 µg/mL (≈ 9.89 µM)
28 | COc1ccc2nc3[nH]c4ccccc4c3c(-c3c[nH]c4ccccc34)c2c1 | 4 (≈ 11 µM) | 
29 | CC1=C(C(=O)O)N2C(=O)[C@@H](NC(=O)[C@H](N)c3ccccc3)[C@H]2SC1 [CEPHALEXIN ANHYDROUS] | 72 (≈ 207 µM) | 

Source: ChEMBL document CHEMBL5230084, “Indole-based derivatives as potential antibacterial activity against methicillin-resistance Staphylococcus aureus (MRSA)” (Eur J Med Chem, 2020)
